In patent publication US8709710B2, “Methods of modulating interleukin-22 and immune response by notch regulators” (Deutsches Rheuma-Forschungszentrum Berlin, priority 2009, dated 2014):

System: human T helper cells
Assay: IL-22 expression in human T helper cells activated with anti-CD3/anti-CD28 microparticles and recombinant Delta-like 4
Format: cell-based
Conditions: increasing concentrations of Delta-like 4 on microparticles; no antigen-presenting cells; restimulated after 5 days; FIG. 6
Method: Naive, i.e. antigen-inexperienced, human T helper cells are activated in the absence of antigen-presenting cells with microparticles loaded with stimulating anti-CD3 and anti-CD28 antibodies and increasing concentrations of recombinantly produced Delta-like 4. After 5 days the cells are restimulated and the expression of IL-22 is analyzed.

Delta-like 4: recombinantly produced Notch ligand Delta-like 4, loaded on microparticles
expression of IL-22: concentration-dependent expression of IL-22
